Measurements reported in patent US5069895A, “Methods for the treatment of alcohol intoxication and dependence” (priority 1989, dated 1991).
Where two headings read alike, the source gives them in different places.

Legend:
mice = conditions: cited from earlier work; for effect on symptoms of ethanol intoxication: Dar et al. (1985); for intoxicating effect of ethanol: administration over a 10-day period to mice, Dar and Wooles (1986); for ethanol-induced ataxia: pretreated mice, Dar et al. (1987)
NG108-15 cells [1] = assay: acute effect of ethanol on endogenous cAMP levels; format: cell-based
Experimental: NG108-15 cells were grown in defined media as described (Gordon et al. (1986) supra.) to a final density of 12-20×10^6 cells per flask. […] Bars represent means ±SEM, n=4-9.

S49 wild type cells [2] = assay: agonist stimulation of cAMP levels over basal
Experimental: (§1) S49 wild type (WT) and adenosine transport mutants (80-2A6 and 160-D4) were grown in defined media (11, without phytohemagglutinin) with 1 U/ml ADA for at least 2 weeks. They were then grown in the presence or absence of 100 mM ethanol with or without 1.5 U/ml ADA for 48 hours. Accumulation of adenosine over 5 min was determined by incubating 1.0×10^7 cells/ml in sterilized PBS in the absence or presence of 200 mM ethanol. Extracellular adenosine concentrations were determined as in FIG. 2. Accumulation of adenosine over 24 hours in the absence or presence of 100 mM ethanol was determined as described by Green (1980) supra.. Assays for receptor-stimulated cAMP levels were carried out as in FIG. 3. […] Values represent means ±SEM. Number of determinations in indicated in parentheses.

[3] = test system: C1300 neuroblastoma cells; conditions: endogenously released, overnight culture; cited from earlier work
NG108-15 cells [4] = conditions: 200 mM ethanol, 10 min
Experimental: NG108-15 cells (5×10^6 cells/well) were incubated with 2 ml of PBS in the presence or absence of 200 mM ethanol for 10 min. Fluorescent derivatives of adenosine were prepared (Green (1980) supra.) and injected onto a reverse-phase HPLC column equilibrated with 1.2 mM KPO4, pH 5 and eluted with a 0-60% methanol gradient. Peak areas were compared with those of known amounts of 1,N^6 -ethenoadenosine.

[5] = test system: S49 adenosine transport mutant 80-2A6
Experimental: as §1

S49 wild type cells [6] = test system: S49 wild type cells
Experimental: as §1

S49 wild type cells [7] = assay: receptor-stimulated cAMP levels after chronic ethanol; format: cell-based; conditions: for activity at 100000 µM: wild type, 100 mM EtOH 48 hr
Experimental: as §1

[8] = test system: S49 adenosine transport mutant 160-D4; assay: cells; conditions: 48 h
Experimental: as §1

[9] = test system: S49 adenosine transport mutant 80-2A6; assay: cells; conditions: 48 h
Experimental: as §1

cultured lymphocytes = assay: cells; conditions: for activation at 100000 µM: Homo sapiens, Lymphocyte, 5 min
Experimental: Lymphocytes from alcoholics and nonalcoholics were grown in culture for 6 days, and 100 mM ethanol was added for 24 hours. The cells were washed, preincubated for 5 minutes in the absence of ethanol, and then incubated in the absence and presence of 100 mM ethanol for 5 minutes. Extracellular adenosine was measured by HPLC (n=5-7 for alcoholics and nonalcoholics).

[10] = test system: adenosine transport in freshly isolated lymphocytes; conditions: lymphocytes from alcoholics vs nonalcoholics, 200 mM ethanol 3 min, uptake at 10 seconds
Experimental: Uptake of [^3 H]-adenosine in freshly isolated lymphocytes from nonalcoholics and actively drinking alcoholics was also measured.

[11] = read-out: cAMP levels, 1 uM PGE1
[12] = read-out: cAMP levels, 100 uM PIA

SMILES: OCCN(CCO)c1nc(N2CCCCC2)c2nc(N(CCO)CCO)nc(N3CCCCC3)c2n1 [Dipyridamole]
- effect on symptoms of ethanol intoxication (mice): potentiating effect on certain symptoms of ethanol intoxication

SMILES: CC(C)Cn1c(=O)n(C)c(=O)c2[nH]cnc21 [IBMX, isobutylmethylxanthine]
- effect on ethanol-induced increase in cAMP levels (NG108-15 cells [1]; co-incubation with ethanol 10 min, 1 U/ml ADA or isobutylmethylxanthine): completely blocked
- intoxicating effect of ethanol (mice): increased
- ethanol-induced ataxia (mice): significant potentiation

SMILES: CCCCC[C@H](O)/C=C/[C@H]1[C@H](O)CC(=O)[C@@H]1CCCCCCC(=O)O [PGE1]
- maximal fold induction (S49 wild type cells [2]; Mus musculus, read-out: increase in cAMP levels over basal): 13.5 ± 3.5

SMILES: C[C@H](Cc1ccccc1)Nc1ncnc2c1ncn2[C@@H]1O[C@H](CO)[C@@H](O)[C@H]1O [PIA]
- increase in cAMP levels over basal (S49 wild type cells [2]; maximally-effective concentration): 1.92±0.41 fold

SMILES: Nc1ncnc2c1ncn2[C@@H]1O[C@H](CO)[C@@H](O)[C@H]1O [adenosine]
- concentration sufficient to desensitize adenosine receptor-dependent cAMP production [3]: 10 to 20 nM

SMILES: Cn1c(=O)c2c(ncn2C)n(C)c1=O [caffeine]
- intoxicating effect of ethanol (mice): increased
- ethanol-induced ataxia (mice): significant potentiation

SMILES: CCO [ethanol]
- activation at 200000 µM (NG108-15 cells [1]; Homo sapiens, NG108-15, 10 min, 200 mM ethanol, 10 min, no added agonist, read-out: increase in intracellular cAMP concentration): 60%
- extracellular adenosine concentration (NG108-15 cells [4]): 37±1.2 nM/5×10^6 cells
- extracellular adenosine, EtOH ([5]; 80-2A6, 5 min, EtOH 200 mM): 0 nM/10^7 cells
- extracellular adenosine, EtOH ([5]; 80-2A6, 24 hr, EtOH 100 mM): 0 nM/10^7 cells
- extracellular adenosine, EtOH (S49 wild type cells [6]; 5 min, EtOH 200 nM as printed): 17.6 ± 3.6 nM/10^7 cells
- extracellular adenosine, EtOH (S49 wild type cells [6]; 24 hr, EtOH 100 nM as printed): 56.7 ± 10.2 nM/10^7 cells
- activity at 100000 µM (S49 wild type cells [7]; [11]): 36 ± 6%
- activity at 100000 µM (S49 wild type cells [7]; [12]): 65 ± 7%
- activity at 100000 µM [8, 11]: 98 ± 7%
- activity at 100000 µM [8, 12]: 94 ± 9%
- activity at 100000 µM [9, 11]: 82 ± 7%
- activity at 100000 µM [9, 12]: 115 ± 11%
- activation at 100000 µM (cultured lymphocytes; read-out: increase in extracellular adenosine on rechallenge, lymphocytes from alcoholics, after chronic ethanol, rechallenge 100 mM ethanol): 73%
- activation at 100000 µM (cultured lymphocytes; read-out: increase in extracellular adenosine, lymphocytes from alcoholics, 100 mM ethanol 5 min): 37%
- activation at 100000 µM (cultured lymphocytes; read-out: increase in extracellular adenosine, lymphocytes from nonalcoholics, 100 mM ethanol 5 min): 17%
- increase in extracellular adenosine on rechallenge (cultured lymphocytes; lymphocytes from nonalcoholics, after 100 mM ethanol 24 hours, rechallenge): did not increase extracellular adenosine
- inhibition of adenosine uptake [10]: less inhibition by ethanol compared to uptake in cells from nonalcoholics

SMILES: OC[C@H]1O[C@@H](n2cnc3c(O)ncnc32)[C@H](O)[C@@H]1O [inosine, reference compound]
- desensitization of the adenosine receptor (S49 wild type cells [7]; S49 wild type cells exposed 48 hr, data not shown): did not desensitize the adenosine receptor

SMILES: Cn1c(=O)c2[nH]cnc2n(C)c1=O [theophylline]
- effect on symptoms of ethanol intoxication (mice): ameliorated certain symptoms of intoxication while having no effect on others
- intoxicating effect of ethanol (mice): appeared to have no effect
- ethanol-induced ataxia (mice): significant potentiation
